Measurements from the NIST ThermoML archive (doi:10.1021/je049762q).
Where “and” joins values, the source holds several entries; their conditions need not be identical. Identical values can stand only once.

Assay: molar heat capacity at constant pressure
Conditions: 101.33 kPa, Crystal

Clc1cc(Cl)cc(Cl)c1 [1,3,5-trichlorobenzene]
Conditions | molar heat capacity at constant pressure
6.3 K | 0.73 J/K/mol
6.76 K | 1.13 J/K/mol
7.5 K | 1.88 J/K/mol
7.61 K | 1.64 J/K/mol
8.27 K | 2.46 J/K/mol
8.49 K | 2.76 J/K/mol
9.54 K | 3.28 J/K/mol
9.57 K | 3.32 J/K/mol
10 K | 3.78 J/K/mol
10.48 K | 4.28 J/K/mol
10.78 K | 4.56 J/K/mol
11.23 K | 4.67 J/K/mol
11.76 K | 5.07 J/K/mol
12.18 K | 5.67 J/K/mol
13.16 K | 7.41 J/K/mol
14.33 K | 8.56 J/K/mol
14.68 K | 9.1 J/K/mol
15 K | 9.58 J/K/mol
16.47 K | 11.78 J/K/mol
16.54 K | 11.86 J/K/mol
18.11 K | 14.04 J/K/mol
18.46 K | 14.51 J/K/mol
19.49 K | 16.03 J/K/mol
20 K | 16.74 J/K/mol
20.47 K | 17.39 J/K/mol
20.67 K | 17.88 J/K/mol
21.77 K | 19.17 J/K/mol
22.76 K | 20.24 J/K/mol
24.03 K | 21.5 J/K/mol
25 K | 22.66 J/K/mol
25.53 K | 23.3 J/K/mol
26.89 K | 24.95 J/K/mol
26.99 K | 25.08 J/K/mol
28.15 K | 26.53 J/K/mol
29.75 K | 28.33 J/K/mol
30 K | 28.58 J/K/mol
32.12 K | 30.66 J/K/mol
34.24 K | 32.73 J/K/mol
36.16 K | 34.21 J/K/mol
37.93 K | 35.9 J/K/mol
39.58 K | 37.3 J/K/mol
40 K | 37.64 J/K/mol
41.88 K | 39.13 J/K/mol
44.77 K | 41.44 J/K/mol
47.4 K | 43.42 J/K/mol
49.84 K | 45.24 J/K/mol
50 K | 45.36 J/K/mol
52.12 K | 46.94 J/K/mol
54.28 K | 48.44 J/K/mol
56.33 K | 49.86 J/K/mol
58.29 K | 51.22 J/K/mol
60 K | 52.37 J/K/mol
60.17 K | 52.49 J/K/mol
61.98 K | 53.68 J/K/mol
63.73 K | 54.83 J/K/mol
65.43 K | 55.89 J/K/mol
67.08 K | 56.99 J/K/mol
68.68 K | 57.99 J/K/mol
70 K | 58.81 J/K/mol
70.25 K | 58.96 J/K/mol
71.78 K | 59.87 J/K/mol
73.27 K | 60.75 J/K/mol
74.74 K | 61.66 J/K/mol
76.18 K | 62.52 J/K/mol
77.59 K | 63.36 J/K/mol
78.98 K | 64.16 J/K/mol
80 K | 65.01 J/K/mol
80.55 K | 65.45 J/K/mol
81.45 K | 65.93 J/K/mol
82.22 K | 66.44 J/K/mol
83.86 K | 67.37 J/K/mol
83.98 K | 67.39 J/K/mol
85.47 K | 68.28 J/K/mol
86.45 K | 68.77 J/K/mol
87.05 K | 69.08 J/K/mol
88.6 K | 70 J/K/mol
88.86 K | 70.1 J/K/mol
90 K | 70.62 J/K/mol
90.14 K | 70.69 J/K/mol
91.23 K | 71.17 J/K/mol
91.65 K | 71.42 J/K/mol
93.14 K | 72.19 J/K/mol
93.56 K | 72.31 J/K/mol
94.61 K | 72.86 J/K/mol
94.95 K | 73 J/K/mol
95.84 K | 73.25 J/K/mol
96.07 K | 73.4 J/K/mol
97.51 K | 74.13 J/K/mol
98.08 K | 74.45 J/K/mol
98.92 K | 74.86 J/K/mol
100 K | 75.37 J/K/mol
100.29 K | 74.9 J/K/mol
101.72 K | 76.37 J/K/mol
102.39 K | 76.72 J/K/mol
102.47 K | 76.71 J/K/mol
103.09 K | 76.88 J/K/mol
104.45 K | 77.52 J/K/mol
104.61 K | 77.48 J/K/mol
105.8 K | 78.18 J/K/mol
105.97 K | 78.26 J/K/mol
106.72 K | 78.56 J/K/mol
107.13 K | 78.9 J/K/mol
107.15 K | 78.92 J/K/mol
108.46 K | 79.49 J/K/mol
108.81 K | 79.58 J/K/mol
109.46 K | 80.02 J/K/mol
109.77 K | 80.18 J/K/mol
110 K | 80.28 J/K/mol
110.87 K | 80.59 J/K/mol
111.07 K | 80.74 J/K/mol
111.47 K | 80.93 J/K/mol
112.36 K | 81.34 J/K/mol
112.87 K | 81.56 J/K/mol
113.65 K | 81.98 J/K/mol
114.92 K | 82.54 J/K/mol and 82.67 J/K/mol
115.68 K | 83.09 J/K/mol
116.19 K | 83.21 J/K/mol
116.91 K | 83.54 J/K/mol
118.88 K | 84.5 J/K/mol
119.52 K | 84.75 J/K/mol
119.79 K | 85.04 J/K/mol
120 K | 85.15 J/K/mol
120.83 K | 85.51 J/K/mol
122.75 K | 86.55 J/K/mol
124.68 K | 87.28 J/K/mol
125.93 K | 87.73 J/K/mol
126.58 K | 88.03 J/K/mol
127.78 K | 88.73 J/K/mol
128.47 K | 88.92 J/K/mol
129.07 K | 89.19 J/K/mol
130 K | 89.68 J/K/mol
130.33 K | 89.86 J/K/mol
131.66 K | 90.66 J/K/mol
132.19 K | 90.72 J/K/mol
134.03 K | 91.56 J/K/mol
135.22 K | 92.02 J/K/mol
135.48 K | 92.36 J/K/mol
135.85 K | 92.4 J/K/mol
137.66 K | 93.21 J/K/mol
138.23 K | 93.42 J/K/mol
139.24 K | 94.03 J/K/mol
140 K | 94.33 J/K/mol
141.21 K | 94.75 J/K/mol
141.25 K | 94.81 J/K/mol
142.95 K | 95.67 J/K/mol
144.16 K | 96.04 J/K/mol
146.61 K | 97.27 J/K/mol
147.08 K | 97.34 J/K/mol
149.97 K | 98.63 J/K/mol
150 K | 98.65 J/K/mol
150.22 K | 98.83 J/K/mol
152.83 K | 99.87 J/K/mol
153.79 K | 100.35 J/K/mol
155.66 K | 101.1 J/K/mol
157.32 K | 101.86 J/K/mol
158.47 K | 102.3 J/K/mol
160 K | 102.99 J/K/mol
160.81 K | 103.34 J/K/mol
161.25 K | 103.49 J/K/mol
164.01 K | 104.67 J/K/mol
164.27 K | 104.83 J/K/mol
166.74 K | 105.83 J/K/mol
167.69 K | 106.28 J/K/mol
169.46 K | 106.98 J/K/mol
170 K | 107.22 J/K/mol
